The results in this text go back to ChEMBL document CHEMBL1201862, “PubChem BioAssay data set” (2004).

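Cells were grown in 96-well plates and exposed to each compound for 48 hours at five concentrations; endpoints were interpolated linearly between bracketing concentrations, or set to the highest concentration if not reached. GI50: concentration for 50% inhibition of growth.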 The source made the active and inactive calls. Rule as the data show it: active = GI50 up to about 1.1 µM and inactive = higher.

Some test systems named below: K562; NCI-H522; HOP-62; MOLT-4; NCI-H460; KM12; SNB-75; HCT-15; OVCAR-8; LOX IMVI; A498; SK-OV-3; OVCAR-5; NCI-H23; HL-60; M14; 786-0; RXF 393.
Common to all, as to test: NCI tumour cell line growth inhibition, 48 h

With `C=CC(=O)NCNC(=O)C=C`, the GI50 in the assay on K562, in the assay with NCI-H522, in the assay on HOP-62, in the assay with MOLT-4, in the assay on NCI-H460 and with KM12 was > 100 µM (inactive) each time. Also, the GI50 is > 100 µM (inactive) with SNB-75; above 100 µM with HCT-15; > 100 µM (inactive) in the assay on OVCAR-8; > 100 µM (inactive) with LOX IMVI; > 100 µM (inactive) in the assay with A498; > 100 µM (inactive) with SK-OV-3. Moreover, the GI50 with OVCAR-5, with NCI-H23, in the assay with HL-60, in the assay with M14 and with 786-0 was > 100 µM (inactive) in each case.
For the compound `C=C(C)CCN[Si](c1ccccc1)(c1ccccc1)C(C)(C)C`, the GI50 in the assay with K562 was 24.1 µM (inactive); with NCI-H522, 18.1 µM (inactive); with HOP-62, 17.1 µM (inactive); in the assay with MOLT-4, 18.7 µM (inactive); with NCI-H460, 29 µM (inactive); in the assay on KM12, 18.5 µM (inactive). The GI50 with SNB-75 is 28.5 µM (inactive); in the assay with HCT-15, 21.9 µM; in the assay on OVCAR-8, 19.6 µM (inactive); with LOX IMVI, 17.8 µM (inactive); in the assay with A498, 28.9 µM (inactive); with SK-OV-3 it was 32.3 µM (inactive). For the same compound, the GI50 is 15.3 µM (inactive) with RXF 393; 19.4 µM (inactive) in the assay on NCI-H23; 20.1 µM (inactive) in the assay with HL-60; 18.9 µM (inactive) in the assay on M14; 16.6 µM (inactive) in the assay on 786-0.
As for `Cn1c2c(c3ccccc31)CCN(CCN1CCN(c3ccccc3)CC1)C2=O`, the GI50 in the assay on K562 is > 100 µM (inactive); in the assay with NCI-H522 it was 26.3 µM (inactive); in the assay on MOLT-4, > 100 µM (inactive); in the assay on NCI-H460, > 100 µM (inactive); in the assay with HCT-15, above 100 µM; in the assay on OVCAR-8, > 100 µM (inactive). Also, the GI50 was > 100 µM (inactive) with LOX IMVI; > 100 µM (inactive) in the assay on SK-OV-3; 26.7 µM (inactive) in the assay with RXF 393; 33.5 µM (inactive) with NCI-H23; > 100 µM (inactive) with HL-60; > 100 µM (inactive) in the assay with M14. In the assay with 786-0, the GI50 was 68.2 µM (inactive).
As for `CN1c2ccccc2N(C(=O)c2ccccc2)C(CC(=O)O)c2cccn21` (stereo not given), the GI50 with K562, with NCI-H522, in the assay with HOP-62, with MOLT-4, in the assay with NCI-H460 and with KM12 was > 100 µM (inactive) in each case. The GI50 is > 100 µM (inactive) with SNB-75; above 100 µM in the assay with HCT-15; > 100 µM (inactive) in the assay with OVCAR-8; > 100 µM (inactive) in the assay on LOX IMVI; > 100 µM (inactive) in the assay with A498; > 100 µM (inactive) in the assay on SK-OV-3. For the same compound, the GI50 with RXF 393 is 43.1 µM (inactive); in the assay with OVCAR-5, > 100 µM (inactive); in the assay on NCI-H23 it was > 100 µM (inactive); in the assay with HL-60, > 100 µM (inactive); with M14 it was > 100 µM (inactive); with 786-0, > 100 µM (inactive).
As to `C=C1CC(C/C=C(\C)CC2CC(=C)C(=O)O2)OC1=O` (stereo not given), the GI50 in the assay on K562, in the assay on HOP-62, with MOLT-4, in the assay with NCI-H460, in the assay with KM12 and in the assay on SNB-75 was > 100 µM (inactive) in each case. Further, the GI50 in the assay with HCT-15 is above 100 µM; in the assay with OVCAR-8, > 100 µM (inactive); in the assay on LOX IMVI it was > 100 µM (inactive); in the assay with A498, > 100 µM (inactive); in the assay with SK-OV-3, > 100 µM (inactive); in the assay on RXF 393, > 100 µM (inactive). The GI50 in the assay with OVCAR-5, with NCI-H23, in the assay on HL-60, with M14 and with 786-0 was > 100 µM (inactive) in each case.
In the case of `c1ccc(SC2CCSc3ccccc3C2Sc2ccccc2)cc1` (stereo not given), the GI50 was > 100 µM (inactive) in the assay on K562; > 100 µM (inactive) in the assay with NCI-H522; > 100 µM (inactive) in the assay on HOP-62; > 100 µM (inactive) with MOLT-4; > 100 µM (inactive) in the assay on NCI-H460; 56.1 µM (inactive) in the assay with KM12. The GI50 in the assay with SNB-75 was 19.8 µM (inactive); in the assay on HCT-15, above 100 µM; with OVCAR-8 it was > 100 µM (inactive); in the assay with LOX IMVI it was > 100 µM (inactive); with A498 it was > 100 µM (inactive); in the assay with SK-OV-3, > 10 µM (inactive). The results for the GI50 in the assay with HL-60, in the assay with M14 and in the assay on 786-0 were 4.73 µM (inactive), > 100 µM (inactive) and > 100 µM (inactive), respectively.
For the compound `CC(C)(C)C[P+](C)(C)c1ccccc1`, the GI50 in the assay on K562 is 34.4 µM (inactive); with HOP-62, > 100 µM (inactive); in the assay with MOLT-4, > 100 µM (inactive); in the assay on NCI-H460 it was > 100 µM (inactive); in the assay on KM12 it was > 100 µM (inactive); with SNB-75 it was > 100 µM (inactive). Besides, the GI50 in the assay on HCT-15 was above 100 µM; in the assay with OVCAR-8, > 100 µM (inactive); in the assay with LOX IMVI, > 100 µM (inactive); in the assay on SK-OV-3, > 100 µM (inactive); in the assay on RXF 393, > 100 µM (inactive); in the assay on OVCAR-5, 76 µM (inactive). Besides, the GI50 in the assay with NCI-H23 was > 100 µM (inactive); in the assay with HL-60, 67.1 µM (inactive); in the assay with M14, > 100 µM (inactive); with 786-0, > 100 µM (inactive).
As for `Cc1ccc(-n2c(=S)[nH]c3ccc(Br)cc3c2=O)cc1`, the GI50 with K562, in the assay with NCI-H522, in the assay with HOP-62, with MOLT-4, with NCI-H460 and with KM12 was > 100 µM (inactive) in each case. Further, the GI50 with SNB-75 is > 100 µM (inactive); with HCT-15 it was above 100 µM; with OVCAR-8 it was > 100 µM (inactive); in the assay on LOX IMVI, > 100 µM (inactive); in the assay on A498, > 100 µM (inactive); in the assay with RXF 393 it was > 100 µM (inactive). The GI50 in the assay on OVCAR-5, in the assay with NCI-H23, with HL-60 and in the assay on 786-0 was > 100 µM (inactive) each time.
On to `CCOC(=O)C1=C(C(=O)OCC)C2(c3ccccc3)N(O1)c1ccccc1C2(C)C` (stereo not given), for which the GI50 with K562 was 42.7 µM (inactive); in the assay on NCI-H522, 22.6 µM (inactive); in the assay with HOP-62 it was 37.6 µM (inactive); in the assay on MOLT-4 it was 32 µM (inactive); in the assay on NCI-H460, 39.5 µM (inactive); in the assay on KM12, 58.1 µM (inactive). The GI50 in the assay on SNB-75 is 25.6 µM (inactive); in the assay with OVCAR-8, 48.3 µM (inactive); in the assay on A498, 58.7 µM (inactive); in the assay on SK-OV-3 it was 30.1 µM (inactive); with RXF 393, 46 µM (inactive); in the assay with OVCAR-5, 99.3 µM (inactive). The GI50 in the assay on NCI-H23 is 30 µM (inactive); in the assay with HL-60, 22.7 µM (inactive); with M14, 38.5 µM (inactive); in the assay with 786-0, 75.7 µM (inactive).
As to `O=C1C2c3[nH]c4ccccc4c3C3CCC(c4ccccc4)CC3C2C(=O)N1c1ccccc1` (stereo not given), the GI50 in the assay on K562 is 55.1 µM (inactive); in the assay on MOLT-4 it was 83.8 µM (inactive); in the assay with NCI-H460, > 100 µM (inactive); with KM12 it was > 100 µM (inactive); in the assay on SNB-75 it was 27.3 µM (inactive); with HCT-15, above 100 µM. Moreover, the GI50 in the assay with OVCAR-8 is > 100 µM (inactive); in the assay on LOX IMVI, > 100 µM (inactive); with A498 it was > 10 µM (inactive); in the assay on SK-OV-3 it was > 100 µM (inactive); in the assay on RXF 393, > 100 µM (inactive); in the assay with OVCAR-5 it was > 100 µM (inactive). Also, the GI50 is > 100 µM (inactive) in the assay with NCI-H23, 24.3 µM (inactive) with HL-60, > 100 µM (inactive) in the assay with M14 and > 100 µM (inactive) in the assay with 786-0.
For `O=C(CCc1nnc(S)[nH]1)Nc1ccc(Cl)c(Cl)c1`, the GI50 in the assay with K562 was 9.1 µM (inactive); with NCI-H522, 23.4 µM (inactive); in the assay with HOP-62 it was 20 µM (inactive); in the assay with MOLT-4, 45.8 µM (inactive); with NCI-H460, 90.8 µM (inactive); in the assay on KM12 it was 21.9 µM (inactive). Also, the GI50 is 20 µM (inactive) in the assay with SNB-75; 6.25 µM in the assay with HCT-15; > 100 µM (inactive) with OVCAR-8; > 100 µM (inactive) with A498; > 100 µM (inactive) in the assay on SK-OV-3; 33.8 µM (inactive) in the assay on OVCAR-5. Besides, the GI50 in the assay on NCI-H23 was 53.3 µM (inactive); in the assay on HL-60 it was 82.4 µM (inactive); in the assay with M14 it was 27.4 µM (inactive); with 786-0, > 100 µM (inactive).
With `CC[n+]1c(/C=C/c2ccc(N(CCCl)CCCl)cc2)ccc2cc(Br)ccc21`, the GI50 in the assay with K562 is 0.361 µM (active); in the assay with NCI-H522 it was 0.471 µM (active); in the assay on HOP-62 it was 3.43 µM (inactive); in the assay on MOLT-4 it was 1.46 µM (inactive); with NCI-H460, 2.65 µM (inactive); with KM12, 1.68 µM (inactive). The GI50 in the assay on SNB-75 is 0.312 µM (active); in the assay with HCT-15 it was 14.9 µM; in the assay on OVCAR-8, 1.86 µM (inactive); in the assay on LOX IMVI it was 1.47 µM (inactive); in the assay on A498, 1310 µM (inactive); with SK-OV-3, 2.23 µM (inactive). Also, the GI50 with RXF 393 is 1.31 µM (inactive); with OVCAR-5, 3.99 µM (inactive); in the assay with NCI-H23, 2.79 µM (inactive); in the assay on HL-60, 0.246 µM (active); in the assay with M14, 1.87 µM (inactive); with 786-0, 1.84 µM (inactive).
